Key:
[1] = test system: patient bone marrow derived plasma cells; test: Apoptosis (Annexin V-FITC/PI), multiple myeloma patient cells; assay type: cell-based, human
Description: Blood or bone marrow samples from multiple myeloma patients was obtained from treated or untreated patients after informed consent. Plasma cells were obtained after gradient density centrifugation using Ficoll Hypaque. Some samples were purified for […] population using flow cytometry. In all cases, purity of the plasma cells was higher than 90%, as assessed by morphology.
MM cell lines were cultured in six-well plates and treated as described above. At the end of the treatment the cells were washed and resuspended in annexin binding buffer (10 mM 4-(2-hydroxyethyl)-1-piperazineethanesulfonic acid pH 7.4, 140 mM NaCl, 2.5 mM CaCl2) after which Annexin V-FITC and Propodium Iodide solution was added (5 micro L each) according to manufactures protocol (BD Bioscences). Flow cytometry was performed using a FACSCanto (BD Biosciences, San Jose, Calif., USA).

[2] = test system: activated Bax in Panc-1 cells; test: Bax activation, 6A7 anti-Bax immunostaining, Panc-1; assay type: cell-based, human; conditions: 24 h
Description: Cells mounted on glass slides were permeabilized with PBS containing 0.3% Triton X-100, and blocked with 1% bovine serum albumin in PBS for 30 min at room temperature, followed with overnight incubation with anti-Bak 6A7 (Calbiochem) at 4° C. After thorough washing of the sections in PBS, a secondary antibody labeled with DyLight 488 (Thermo Scientific) was added and incubated for 2 h at room temperature. Nuclei were visualized with DAPI. Samples were analyzed with a FluoView 500 Confocal Laser Scanning Microscope (Olympus).

[3] = biological target: Mcl-1/Bax protein-protein interactions (Homo sapiens, UniProt Q07820); test: SPR competitive solution binding assay, Mcl-1 to immobilized Bax; conditions: Mcl-1 300 nM pre-incubated with inhibitor; read-out: IC50, inhibition of binding of Mcl-1 to Bax
Chain of Mcl-1/Bax protein-protein interactions (Q07820 171-327): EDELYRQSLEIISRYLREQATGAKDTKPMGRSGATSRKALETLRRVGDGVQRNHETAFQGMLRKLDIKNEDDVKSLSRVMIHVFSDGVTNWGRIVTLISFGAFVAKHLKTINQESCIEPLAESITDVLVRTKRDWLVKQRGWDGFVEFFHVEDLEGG
Description: SPR experiments were performed using Biacore 2000 optical biosensors. Recombinant Bax, residues 1 to 100 (Novus Biologicals) and Mcl-1 proteins were used for competitive solution binding experiments. The details for immobilization of Bax protein, determination of the binding affinity of Mcl-1 to Bax, and conditions for testing Mcl-1 compounds are provided.
Recombinant Bax protein (residues 1-100) purchased from Novus Biologicals, Inc., was immobilized on a CM-5 sensor chip at different densities using standard EDC/NHS coupling chemistry followed by ethanolamine deactivation of the surfaces. […] Determination of kon, koff and Kd were calculated by simultaneous non-linear regression using BIAEvaluation software.
Using the same Bax immobilized CM5 chip, SPR competitive solution binding experiments were performed by pre-incubated Mcl-1 protein (300 nM) with tested small-molecule inhibitors for at least 30 minutes and then the reaction mixture was injected over the surfaces of the chip. Response units were measured at 60 seconds in the dissociation phase and the specific binding was calculated by subtracting the control surface (Fc1) signal from the surfaces with immobilized Bax. […] IC50 values were determined by non-linear least squares analysis using Graph Pad Prism 5.0 software.

[4] = test system: BxPC-3 xenograft; test: BxPC-3 xenograft efficacy in SCID mice; assay type: in vivo; conditions: 60 mg/kg i.v., 5 days a week for two weeks
Description: For BxPC-3 subcutaneous model, 10×10^6 cells were subcutaneously injected into the flanks of 4-5 week old female severe combined immune deficient mice (ICR-SCID) (Taconic Farms) using 26 G ½ Precision Glide needles (Becton Dickinson). […] Tumors were measured twice weekly using a caliper and expressed in mg. To prevent any pain or discomfort, mice were euthanized and their tumors removed once they reached ˜1800 mg burden. […] Tumor weight was recorded throughout the treatment period using previously described methods.

[5] = biological target: Bcl-xL (Homo sapiens, UniProt Q07817, DEL45-85); test: FP-based binding assay, Bcl-xL
Chain of Bcl-xL (Q07817 other isoform, or with tags, fused parts or gaps DEL45-85): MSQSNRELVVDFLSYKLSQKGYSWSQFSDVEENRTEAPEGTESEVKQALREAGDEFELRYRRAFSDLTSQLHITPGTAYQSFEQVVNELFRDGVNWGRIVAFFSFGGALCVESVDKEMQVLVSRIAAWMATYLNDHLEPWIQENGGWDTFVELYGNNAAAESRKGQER

[6] = mouse, in vivo, iv, 60 mg/kg
[7] = test system: BxPC-3; test: Cell growth inhibition (WST-8), BxPC-3; assay type: cell-based; conditions: Homo sapiens, BXPC-3, 96 h; 4 days treatment
Description: (§1) Human PC cell lines AsPC-1, BxPC-3 and Capan-2 were cultured in RPMI 1640 medium, while Panc-1 and MiaPaCa were cultured in DMEM medium (Life Technologies), all supplemented with 10% fetal bovine serum (Thermo Scientific HyClone). The rate of cell growth inhibition after treatment with increasing concentrations of the tested compounds was determined by WST-8 assay as described in the manufacturers protocol (Dojindo Molecular Technologies Inc.).

[8] = test system: wild type (WT) murine embryonic fibroblasts (MEF); test: Induction of apoptosis in MEF WT cells; assay type: cell-based; conditions: 10 μM, 24 h
[9] = biological target: T1, Mcl-1/Bax and Mcl-1/Bak complexes in BxPC-3 cells (Homo sapiens, UniProt Q07820); test: Immunoprecipitation with Mcl-1 antibody, BxPC-3; assay type: cell-based; conditions: 4 μM, 24 h
T1 construct: endogenous in cells; host or cells: BxPC-3
T1 sequence (Q07820 whole entry, one chain of several): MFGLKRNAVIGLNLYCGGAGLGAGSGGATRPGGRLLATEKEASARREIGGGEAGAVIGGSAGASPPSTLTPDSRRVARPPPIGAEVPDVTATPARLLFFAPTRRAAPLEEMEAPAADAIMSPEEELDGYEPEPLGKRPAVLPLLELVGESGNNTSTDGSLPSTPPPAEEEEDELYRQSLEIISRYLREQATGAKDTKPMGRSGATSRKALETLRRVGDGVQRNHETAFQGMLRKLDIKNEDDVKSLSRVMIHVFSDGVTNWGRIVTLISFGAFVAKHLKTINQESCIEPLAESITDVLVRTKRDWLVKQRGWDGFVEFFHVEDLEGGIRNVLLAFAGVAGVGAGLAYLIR
Description: Cell lysate (500 μg) were subjected to immunoprecipitation by adding 2.5-5 μg of anti-Mcl-1 antibody and incubation overnight at 4° C. After adding 30 μl of Protein G-agarose (Immunoprecipitation Kit, Sigma) and incubation for 4 h, the samples were centrifuged. The agarose pellet was then washed 7 times, resuspended in Laemmli buffer (Santa Cruz), and boiled for 5 min. Boiled samples were centrifuged, and supernatant was used for Western blot analysis.

[10] = test system: Panc-1; test: Cell growth inhibition (WST-8), Panc-1; assay type: cell-based; conditions: Homo sapiens, PANC-1, 96 h; 4 days treatment
Description: as §1

For `O=C(O)CSc1cc(NS(=O)(=O)c2ccc(Br)cc2)c2ccccc2c1O` [Compound 9, 2-((4-(4-Bromophenylsulfonamido)-1-hydroxynaphthalen-2-yl)thio)acetic acid], the “apoptotic cells, early event” value ([1]; Pt 90620372, treated) was 10.1%, the “apoptotic cells, late event” value ([1]; Pt 90620372, treated) was 19.8% and the “apoptotic cells, early events” value ([1]; Pt 957034714, treated) was 32.9%. The “apoptotic cells, late events” value ([1]; Pt 957034714, treated) was 62.9%, the “apoptotic cells, early events” value ([1]; Pt 957060476, treated) was 13.3% and the “apoptotic cells, late events” value ([1]; Pt 957060476, treated) was 26.6%. The “concentration from which activated Bax increases” value [2] was ≥ 5 µM, the IC50 [3] was 1.43 ± 0.14 µM and the tumor growth inhibition ([4]; day 19 (p<0.0001)) was 65%. For the same compound, the tumor growth inhibition ([4]; day 22 (p<0.003)) was 56%, the “fold lower affinity to Bcl-xL than to Mcl-1 (selectivity)” value [5] was “more than 50 fold” and the Ki ([5]; read-out: Bcl-xL Ki ± SD) was 33 ± 4.33 µM. For the same compound, the “histopathology (H&E) of normal tissues” value [6] was “did not cause damage to tested tissues from kidney, liver and pancreas”, the IC50 [7] was 3.4 ± 0.4 µM and the “apoptosis in MEF WT cells” value [8] was “more than 60%”. The “inhibition of endogenous interactions of Bax and Bak with Mcl-1” value [9] was “complete inhibition” and the IC50 [10] was 4.4 ± 1.3 µM.

— patent US9486422B2, “Small molecule inhibitors of Mcl-1 and the uses of thereof” (THE REGENTS OF THE UNIVERSITY OF MICHIGAN, priority 2011, dated 2016)
